What was measured:
Assay in all cases: relative viability (nuclei count vs DMSO), 5 days (fraction); higher = more cells survive
[1] = compound: CNC(=O)c1ccccc1Sc1ccc2c(/C=C/c3ccccn3)n[nH]c2c1 [Axitinib] + Nc1ncn([C@H]2C[C@H](O)[C@@H](CO)O2)c(=O)n1 [Decitabine] (partner 2 µM)
How it was run: (§1)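 Relative viability was taken as the ratio of nuclei in treated wells to nuclei in vehicle wells. Lung cancer cell lines in 1536-well plates received compounds by pin tool one day after seeding, either one drug alone or a fixed anchor-drug dose plus five library-drug doses (not always all listed) in √10 steps. Nuclei were counted on 4× images after 5 days of treatment, and values are medians of duplicate plates.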

[2] = compound: CNC(=O)c1ccccc1Sc1ccc2c(/C=C/c3ccccn3)n[nH]c2c1 [Axitinib] + C[C@@H](Oc1cc(-c2cnn(C3CCNCC3)c2)cnc1N)c1c(Cl)ccc(F)c1Cl [Crizotinib] (partner 1 µM)
How it was run: as §1

[3] = compound: CNC(=O)c1ccccc1Sc1ccc2c(/C=C/c3ccccn3)n[nH]c2c1 [Axitinib] + O=C(CCCCCCC(=O)Nc1ccccc1)NO [Vorinostat] (partner 1 µM)
How it was run: as §1

[4] = compound: Nc1nc(Nc2ccc3c(c2)CC[C@@H](N2CCCC2)CC3)nn1-c1cc2c(nn1)-c1ccccc1CCC2 [Bemcentinib] + O=C(CCCCCCC(=O)Nc1ccccc1)NO [Vorinostat] (partner 1 µM)
How it was run: as §1

| Cell Line | relative viability ([1]; first compound 0.005 µM) | relative viability ([1]; first compound 0.01581 µM) | relative viability ([1]; first compound 0.05 µM) | relative viability ([1]; first compound 0.1581 µM) | relative viability ([1]; first compound 0.5 µM) | relative viability ([2]; first compound 0.005 µM) | relative viability ([2]; first compound 0.01581 µM) | relative viability ([2]; first compound 0.05 µM) | relative viability ([2]; first compound 0.1581 µM) | relative viability ([2]; first compound 0.5 µM) | relative viability ([3]; first compound 0.005 µM) | relative viability ([3]; first compound 0.01581 µM) | relative viability ([3]; first compound 0.05 µM) | relative viability ([3]; first compound 0.1581 µM) | relative viability ([3]; first compound 0.5 µM) | relative viability ([4]; first compound 0.04 µM) | relative viability ([4]; first compound 0.1265 µM) | relative viability ([4]; first compound 0.4 µM) | relative viability ([4]; first compound 1.265 µM) | relative viability ([4]; first compound 4 µM) |
| --- | --- | --- | --- | --- | --- | --- | --- | --- | --- | --- | --- | --- | --- | --- | --- | --- | --- | --- | --- | --- |
| A-427 | 0.58 | 0.602 | 0.553 | 0.57 | 0.589 | 1 | 0.958 | 0.82 | 0.898 | 0.901 | 0.909 | 0.929 | 0.864 | 0.903 | 0.956 | 0.841 | 0.896 | 0.867 | 0.836 | 0.82 |
| LXF-289 | 0.388 | 0.398 | 0.353 | 0.362 | 0.395 | 0.872 | 0.799 | 0.781 | 0.781 | 0.841 | 0.777 | 0.74 | 0.791 | 0.716 | 0.732 | 0.658 | 0.799 | 0.662 | 0.796 | 0.763 |
| NCI-H1355 | 0.35 | 0.421 | 0.32 | 0.339 | 0.373 | 1.13 | 1.06 | 1.1 | 0.948 | 1.29 | 0.661 | 0.575 | 0.69 | 0.604 | 0.542 | 0.596 | 0.617 | 0.701 | 0.65 | 0.687 |
| NCI-H1437 | 0.608 | 0.594 | 0.555 | 0.59 | 0.561 | 1.07 | 0.927 | 0.863 | 0.934 | 0.93 | 0.942 | 0.85 | 0.86 | 0.876 | 0.78 | 0.857 | 0.914 | 0.97 | 0.955 | 0.889 |
| HCC-366 | 0.361 | 0.356 | 0.393 | 0.323 | 0.423 | 0.628 | 0.657 | 0.603 | 0.487 | 0.669 | 0.666 | 0.414 | 0.447 | 0.333 | 0.395 | 0.32 | 0.43 | 0.441 | 0.303 | 0.433 |
| NCI-H1299 | – | – | – | – | – | 0.997 | 0.947 | 0.986 | 1 | 1.04 | – | – | – | – | – | – | – | – | – | – |
| 201T | 0.866 | 0.803 | 0.851 | 0.872 | 0.878 | 1.06 | 1.05 | 1.05 | 1.07 | 1.02 | 0.995 | 0.946 | 0.969 | 0.9 | 0.951 | 0.962 | 0.981 | 1.04 | 0.938 | 1.06 |
| IA-LM | – | – | – | – | – | 0.95 | 0.737 | 1.05 | 1.04 | 0.982 | 1.02 | 1.02 | 0.974 | 0.934 | 0.973 | 0.968 | 1.38 | 0.984 | 0.965 | 0.866 |
| NCI-H1734 | 0.518 | 0.492 | 0.524 | 0.491 | 0.521 | 0.683 | 0.765 | 0.679 | 0.758 | 0.868 | 0.787 | 0.891 | 0.865 | 0.903 | 0.964 | 0.788 | 0.773 | 0.853 | 0.833 | 0.828 |
| NCI-H1993 | 0.709 | 0.634 | 0.609 | 0.631 | 0.668 | 1.01 | 0.983 | 0.873 | 0.96 | 0.858 | 0.826 | 0.835 | 0.734 | 0.722 | 0.876 | 0.739 | 0.716 | 1.07 | 0.981 | 1.05 |
| NCI-H2085 | 0.578 | 0.54 | 0.614 | 0.551 | 0.561 | 0.799 | 0.902 | 0.794 | 0.718 | 0.874 | 0.823 | 0.788 | 0.883 | 0.758 | 0.812 | 0.762 | 0.822 | 0.778 | 0.795 | 0.764 |
| EBC-1 | – | – | – | – | – | 0.22 | 0.213 | 0.192 | 0.202 | 0.195 | – | – | – | – | – | – | – | – | – | – |
| COR-L23 | 0.504 | 0.454 | 0.419 | 0.511 | 0.397 | 0.696 | 0.564 | 0.596 | 0.623 | 0.778 | 0.516 | 0.478 | 0.502 | 0.452 | 0.586 | 0.468 | 0.47 | 0.522 | 0.477 | 0.521 |
| NCI-H1793 | 0.595 | 0.55 | 0.478 | 0.413 | 0.559 | – | – | – | – | – | 0.955 | 0.679 | 0.693 | 0.637 | 0.678 | 0.63 | 1.15 | 0.74 | 0.461 | 0.699 |
| A549 | 0.324 | 0.296 | 0.338 | 0.243 | 0.324 | 0.763 | 0.734 | 0.776 | 0.49 | 0.744 | – | – | – | – | – | – | – | – | – | – |
| EPLC-272H | 0.411 | 0.345 | 0.338 | 0.351 | 0.377 | 0.893 | 0.989 | 0.76 | 0.986 | 0.937 | 0.341 | 0.359 | 0.498 | 0.481 | 0.459 | 0.441 | 0.458 | 0.459 | 0.405 | 0.58 |
| NCI-H2009 | 0.408 | 0.339 | 0.409 | 0.364 | 0.346 | 1.17 | 1.14 | 1.01 | 1.08 | 1.16 | 0.732 | 0.783 | 0.736 | 0.716 | 0.821 | 0.671 | 0.783 | 0.71 | 0.723 | 0.722 |
| ChaGo-K-1 | 0.557 | 0.527 | 0.506 | 0.52 | 0.495 | 1.1 | 1.17 | 1.13 | 1.05 | 1.15 | 0.727 | 0.754 | 0.797 | 0.746 | 0.737 | 0.686 | 0.832 | 0.823 | 0.749 | 0.755 |
| SW 900 | 0.428 | – | 0.477 | 0.4 | 0.602 | – | – | – | – | – | 0.51 | – | 0.434 | 0.472 | 0.829 | 0.461 | 0.924 | 0.602 | 0.303 | 0.501 |

Source: the supplement of paper PMC10307832
